Literature values as cited in US20170027963A1, “DELIVERY OF NON-STEROIDAL AGENTS TO THE BRAIN VIA THE NASAL TRACT TO TREAT NEUROLOGICAL DISORDERS” (priority 2014, published 2017).

Conditions: prescribed ibuprofen for more than five years vs those who did not; US veterans aged 55 and older

CC(C)Cc1ccc(C(C)C(=O)O)cc1 (stereo not shown) [ibuprofen]
less likely to develop Alzheimer's disease: 40%
